Measured values as given in patent US9096560B2, “5-heterocyclylalkyl-3-hydroxy-2-phenylcyclopent-2-enones as herbicides” (Syngenta Limited, priority 2008, dated 2015).

Key:
Assay type in all cases: in vivo
Lolium perenne (LOLPE) [1] = assay: Example B pre-emergence herbicidal test, LOLPE; conditions: Lolium perenne, 312 h, rate 250 g/ha, evaluated after 13 days, 100=total damage to plant, 0=no damage to plant
Outline: (§1)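 Pots sown, sprayed day 1 pre-emergence; spray: aqueous dilution of formulation in acetone/water 50:50 + 0.5% Tween 20. Glasshouse 24/16° C, 14 h light, 65% RH, watering twice daily. Visual damage rating at 13 d, 0–100 scale.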

[2] = system: Alopecurus myosuroides (ALOMY); assay: Example B pre-emergence herbicidal test, ALOMY; conditions: Alopecurus myosuroides, 312 h, rate 250 g/ha, evaluated after 13 days, 100=total damage to plant, 0=no damage to plant
Outline: as §1

[3] = system: Echinochloa crus-galli (ECHCG); assay: Example B pre-emergence herbicidal test, ECHCG; conditions: Echinochloa crus-galli, 312 h, rate 250 g/ha, evaluated after 13 days, 100=total damage to plant, 0=no damage to plant
Outline: as §1

Avena fatua (AVEFA) [4] = assay: Example B pre-emergence herbicidal test, AVEFA; conditions: Avena fatua, 312 h, rate 250 g/ha, evaluated after 13 days, 100=total damage to plant, 0=no damage to plant
Outline: as §1

Lolium perenne (LOLPE) [5] = assay: Example B post-emergence herbicidal test, LOLPE; conditions: Lolium perenne, 312 h, rate 250 g/ha, evaluated after 13 days, scale 0-100, read-out: Post-emergence activity LOLPE (100=total damage to plant; 0=no damage to plant)
Outline: (§2)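 Foliar application to 8-day-old pot-grown seedlings in a glasshouse (24/16 °C, 14 h photoperiod, 65% humidity). Spray solution was derived from an acetone/water (50:50) formulation with 0.5% Tween 20. Injury was assessed 13 days later on a 0–100 scale.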

[6] = system: Alopecurus myosuroides (ALOMY); assay: Example B post-emergence herbicidal test, ALOMY; conditions: Alopecurus myosuroides, 312 h, rate 250 g/ha, evaluated after 13 days, scale 0-100, read-out: Post-emergence activity ALOMY (100=total damage to plant; 0=no damage to plant)
Outline: as §2

[7] = system: Echinochloa crus-galli (ECHCG); assay: Example B post-emergence herbicidal test, ECHCG; conditions: Echinochloa crus-galli, 312 h, rate 250 g/ha, evaluated after 13 days, scale 0-100, read-out: Post-emergence activity ECHCG (100=total damage to plant; 0=no damage to plant)
Outline: as §2

Avena fatua (AVEFA) [8] = assay: Example B post-emergence herbicidal test, AVEFA; conditions: Avena fatua, 312 h, rate 250 g/ha, evaluated after 13 days, scale 0-100, read-out: Post-emergence activity AVEFA (100=total damage to plant; 0=no damage to plant)
Outline: as §2

Compound	pest or weed control at 250 g/ha (Lolium perenne (LOLPE) [1])	pest or weed control at 250 g/ha [2]	pest or weed control at 250 g/ha [3]	pest or weed control at 250 g/ha (Avena fatua (AVEFA) [4])	pest or weed control at 250 g/ha (Lolium perenne (LOLPE) [5])	pest or weed control at 250 g/ha [6]	pest or weed control at 250 g/ha [7]	pest or weed control at 250 g/ha (Avena fatua (AVEFA) [8])
Cc1cc(-c2ccccc2F)cc(C)c1C1C(=O)CC(CC2CCOC2)C1=O (centres unmarked) [Compound T140]	70%	60%	90%	50%	90%	90%	90%	60%
Cc1cc(C)c(C2C(=O)CC(CC3CCN(C(=O)C4CC4)C3)C2=O)c(C)c1 (centres unmarked) [Compound T141]	80%	80%	80%	80%	70%	80%	60%	90%
Cc1cc(C)c(C2C(=O)CC(CC3CCN(C(=O)C(C)C)C3)C2=O)c(C)c1 (centres unmarked) [Compound T142]	70%	90%	90%	80%	70%	90%	60%	90%
Cc1cc(C)c(C2C(=O)CC(CC3CCN(C(=O)C(C)(C)C)C3)C2=O)c(C)c1 (centres unmarked) [Compound T143]	100%	80%	100%	50%	60%	60%	60%	80%
CC(C)=CC(=O)N1CCC(CC2CC(=O)C(c3c(C)cc(C)cc3C)C2=O)C1 (centres unmarked) [Compound T144]	70%	80%	90%	70%	80%	80%	80%	90%
Cc1cc(C)c(C2C(=O)CC(CC3CCN(C(=O)C(C)(C)CCl)C3)C2=O)c(C)c1 (centres unmarked) [Compound T145]	50%	60%	20%	30%	40%	60%	30%	50%
Cc1cc(C)c(C2C(=O)CC(CC3CCN(C(=O)c4cccs4)C3)C2=O)c(C)c1 (centres unmarked) [Compound T146]	90%	70%	70%	50%	80%	80%	70%	90%
Cc1cc(C)c(C2C(=O)CC(CC3CCN(C(=O)c4ccco4)C3)C2=O)c(C)c1 (centres unmarked) [Compound T147]	30%	50%	40%	10%	40%	60%	50%	70%
Cc1cc(C)c(C2C(=O)CC(CC3CCN(C(=O)c4c(C)noc4C)C3)C2=O)c(C)c1 (centres unmarked) [Compound T148]	50%	70%	30%	40%	70%	80%	60%	100%
COc1ccc(CC2C(=O)C(c3c(C)cc(C)cc3C)C(=O)C2CC2CCOC2)cc1 (centres unmarked) [Compound T149]	20%	30%	30%	10%	40%	30%	20%	40%
Cc1cc(C)c(C2C(=O)C(Cc3ccccc3)C(CC3CCOC3)C2=O)c(C)c1 (centres unmarked) [Compound T151]	30%	20%	40%	10%	20%	30%	40%	10%
Cc1cc(C)c(C2C(=O)CC(CC3CCOC3C)C2=O)c(C)c1 (centres unmarked) [Compound T156]	100%	80%	100%	70%	100%	90%	70%	90%
Cc1cc(-c2ccc(C(F)(F)F)cc2)cc(C)c1C1C(=O)CC(CC2CCOC2)C1=O (centres unmarked) [Compound T157]	10%	10%	40%	0%	30%	30%	60%	50%
Cc1cc(-c2ccc(F)cc2)cc(C)c1C1C(=O)CC(CC2CCOC2)C1=O (centres unmarked) [Compound T158]	90%	80%	100%	70%	100%	100%	100%	100%
Cc1cc(-c2ccccc2)cc(C)c1C1C(=O)CC(CC2CCOC2)C1=O (centres unmarked) [Compound T159]	70%	50%	100%	30%	100%	90%	100%	90%
Cc1cc(Br)cc(C)c1C1C(=O)CC(CC2CCOC2)C1=O (centres unmarked) [Compound T160]	90%	30%	70%	40%	100%	40%	70%	60%
Cc1cc(C)c(C2C(=O)CC(CC3CCN(C(=O)C(F)(F)C(F)F)CC3)C2=O)c(C)c1 (centres unmarked) [Compound T161]	90%	30%	100%	60%	100%	70%	90%	90%
Cc1cc(C)c(C2C(=O)CC(CC3CCN(C(=O)C(F)(F)F)C3)C2=O)c(C)c1 (centres unmarked) [Compound T162]	70%	40%	50%	50%	90%	60%	70%	80%
Cc1cc(C)c(C2C(=O)CC(CC3CCN(C(=O)C(F)(F)F)CC3)C2=O)c(C)c1 (centres unmarked) [Compound T163]	80%	50%	60%	60%	100%	90%	90%	100%
